In the NIST ThermoML archive (doi:10.1021/je7000667):

Test: xn = mol fraction of the nth substance listed
Details: Gas, Burnett expansion method

FC(C(F)(F)F)C(F)(F)F [1,1,1,2,3,3,3-heptafluoropropane] + FCF
Details | mass density [kg/m3]
360 K, 221.36 kPa, x2 = 0.5155 | 8.234
360 K, 239.67 kPa, x2 = 0.2648 | 11.408
360 K, 243.21 kPa, x2 = 0.7809 | 6.433
360 K, 303.15 kPa, x2 = 0.5155 | 11.36
360 K, 327.36 kPa, x2 = 0.2648 | 15.74
360 K, 333.32 kPa, x2 = 0.7809 | 8.875
360 K, 414 kPa, x2 = 0.5155 | 15.673
360 K, 445.38 kPa, x2 = 0.2648 | 21.715
360 K, 455.62 kPa, x2 = 0.7809 | 12.244
360 K, 563.21 kPa, x2 = 0.5155 | 21.622
360 K, 602.72 kPa, x2 = 0.2648 | 29.96
360 K, 620.87 kPa, x2 = 0.7809 | 16.892
360 K, 761.94 kPa, x2 = 0.5155 | 29.83
360 K, 809.48 kPa, x2 = 0.2648 | 41.334
360 K, 842.09 kPa, x2 = 0.7809 | 23.305
360 K, 1023.1 kPa, x2 = 0.5155 | 41.153
360 K, 1075.4 kPa, x2 = 0.2648 | 57.027
360 K, 1134.1 kPa, x2 = 0.7809 | 32.152
360 K, 1359.1 kPa, x2 = 0.5155 | 56.775
360 K, 1407.1 kPa, x2 = 0.2648 | 78.678
360 K, 1513.7 kPa, x2 = 0.7809 | 44.316
360 K, 1778.5 kPa, x2 = 0.5155 | 78.326
360 K, 1801.2 kPa, x2 = 0.2648 | 108.549
360 K, 1995.5 kPa, x2 = 0.7809 | 61.139
360 K, 2234.4 kPa, x2 = 0.2648 | 149.76
360 K, 2279 kPa, x2 = 0.5155 | 108.059
360 K, 2584.7 kPa, x2 = 0.7809 | 84.349
360 K, 2647.8 kPa, x2 = 0.2648 | 206.618
360 K, 2834.8 kPa, x2 = 0.5155 | 149.078
370 K, 180 kPa, x2 = 0.2648 | 8.265
370 K, 227.73 kPa, x2 = 0.5155 | 8.23
370 K, 246.7 kPa, x2 = 0.2648 | 11.403
370 K, 250.16 kPa, x2 = 0.7809 | 6.429
370 K, 312.04 kPa, x2 = 0.5155 | 11.355
370 K, 337.19 kPa, x2 = 0.2648 | 15.732
370 K, 343.02 kPa, x2 = 0.7809 | 8.87
370 K, 426.48 kPa, x2 = 0.5155 | 15.665
370 K, 459.23 kPa, x2 = 0.2648 | 21.704
370 K, 469.2 kPa, x2 = 0.7809 | 12.238
370 K, 580.8 kPa, x2 = 0.5155 | 21.611
370 K, 622.4 kPa, x2 = 0.2648 | 29.945
370 K, 639.98 kPa, x2 = 0.7809 | 16.884
370 K, 786.9 kPa, x2 = 0.5155 | 29.815
370 K, 837.7 kPa, x2 = 0.2648 | 41.314
370 K, 869.16 kPa, x2 = 0.7809 | 23.293
370 K, 1058.9 kPa, x2 = 0.5155 | 41.133
370 K, 1116.3 kPa, x2 = 0.2648 | 56.999
370 K, 1172.8 kPa, x2 = 0.7809 | 32.136
370 K, 1411 kPa, x2 = 0.5155 | 56.746
370 K, 1467.3 kPa, x2 = 0.2648 | 78.639
370 K, 1569.4 kPa, x2 = 0.7809 | 44.294
370 K, 1854.7 kPa, x2 = 0.5155 | 78.287
370 K, 1891.2 kPa, x2 = 0.2648 | 108.495
370 K, 2076.9 kPa, x2 = 0.7809 | 61.109
370 K, 2371.1 kPa, x2 = 0.2648 | 149.686
370 K, 2392.6 kPa, x2 = 0.5155 | 108.005
370 K, 2705.2 kPa, x2 = 0.7809 | 84.308
370 K, 2859.2 kPa, x2 = 0.2648 | 206.516
370 K, 3006.5 kPa, x2 = 0.5155 | 149.004
390 K, 190.02 kPa, x2 = 0.2648 | 8.257
390 K, 240.4 kPa, x2 = 0.5155 | 8.222
390 K, 260.65 kPa, x2 = 0.2648 | 11.392
390 K, 264.02 kPa, x2 = 0.7809 | 6.423
